Data as given in US8748395B2, “Cell-permeable peptide inhibitors of the JNK signal transduction pathway” (Xigen Inflammation Ltd., priority 2006, dated 2014).
“Also recorded” adds a separate entry of the source. Square brackets hold non-standard residues; d marks the D form. Peptide text beside a SMILES is read from it.

Assays:
[1] = tested on: βTC-3 cells; assay: Inhibition of IL-1β induced pancreatic β-cell death by TAT-IB peptides; type: cell-based; details: one single addition of peptide 1 μM, IL-1β every two days, 15 days
Experimental: We investigated the effects of the inventive L-TAT-IB(s) peptides on the promotion of β-cell apoptosis elicited by IL-1. PTC-3 cell cultures were incubated for 30 minutes with 1 μM of inventive L-TAT-IB1(s) peptides followed by 10 ng/mL of IL-1. A second addition of peptide (1 μM) was performed 24 hours later. Apoptotic cells were counted after two days of incubation with IL-1β using propidium iodide (red stained cell are dead cells) and Hoechst 33342 (blue stained cell are cells with intact plasma membrane) nuclear staining.
Long term inhibition of IL-1 induced cells death was examined by treating βTC-3 cells as described above, except that incubation of the cells with the peptides and IL-1β was sustained for 12 days. Additional peptides (1 μM) were added each day and additional IL-1β (10 ng/mL) was added every 2 days. […] Taken together, these experiments provide evidence that inventive TAT-IB(s) peptides are biologically active molecules able to prevent the effects of JNK signaling on cell fate.
Inhibition of IL-1β induced pancreatic β-cell death by the inventive D-TAT-IB1(s) peptide was analyzed. βTC-3 cells were incubated as described above for 30 minutes with one single addition of the indicated peptides (1, μM), then IL-1 (10 ng/ml) was added.
Apoptotic cells were then counted after two days of incubation with IL-1β by use of Propidium Iodide and Hoechst 33342 nuclear staining. A minimum of 1,000 cells were counted for each experiment. Standard Error of the Means (SEM) are indicated, n=5.
Long term inhibition of IL-1P induced cell-death by the D-TAT-IB1 peptide was also analyzed. βTC-3 cells were incubated as above for 30 minutes with one single addition of the indicated peptides (1 μM), then IL-1β (10 ng/ml) was added, followed by addition of the cytokine every two days. Apoptotic cells were then counted after 15 days of incubation with IL-1 by use of propidium iodide and Hoechst 33342 nuclear staining. […] A minimum of 1.000 cells were counted for each experiment.

[2] = tested on: guinea pigs; assay: Treatment of noise trauma, hearing threshold shifts by auditory brainstem response; type: in vivo
Experimental: Changes of the hearing threshold level (dB sound pressure level) in guinea pigs following noise trauma (120 dB at 6 kHz during 30 minutes) at 8 kHz, the maximally impacted frequency, measured 20 minutes (temporary threshold shift, TTS, grey) and 15 days post noise exposure (permanent threshold shift). Guinea pigs received D-TAT-IB1(s) in a hyaluronic acid gel deposited onto the cochlear round window membrane either 30 minutes before, 30 minutes after or 4 hours after noise trauma; untreated ears served as control. TTS was measured 20 minutes post noise trauma, while PTS (black), which corresponds to permanent hearing loss, was determined after 15 days.
D-TAT-IB1(s) was applied onto the round window membrane of the cochlea of 3 groups of guinea pigs (each group with 6 animals) in 2 microliters of a gel formulation of 2.6% buffered hyaluronic acid (Hylumed, Genzyme Corp.) at a concentration of 100 μM either 30 minutes before noise trauma (120 dB at 6 kHz during 30 minutes) or 30 minutes or 4 hours thereafter. Untreated ears served as control. Hearing threshold shifts were evaluated by auditory brainstem response measurements 20 minutes after noise trauma (temporary threshold shift, TTS) and 15 days following the trauma (permanent threshold shift, PTS). […] Thus, D-TAT-IB1(s) is a very effective otoprotective compound in case of noise trauma.

[3] = tested on: cortical neuronal culture; assay: LDH release from cortical neuronal cultures following NMDA stimulation; type: cell-based, rat; details: 5 μM peptide, 30 min pre-treatment, 12 h of 100 μM NMDA
Experimental: The neuroprotective effect of the D-TAT-IB (generic)(s)/D-JNKI1 peptide (SEQ ID NO: 12) was evaluated in sister cultures pre-treated for 30 min with the indicated concentrations of peptides or MK-801 before continuous exposure to 100 μM NMDA.
Cortical neuronal culture. We dissected small pieces of cortex from the brains of two day old rat pups, incubated them with 200 units of papain for 30 min at 34° C., and then plated the neurons at densities of approximately 1×10^6 cells/plate on dishes pre-coated with 100 μg/ml poly-D-lysine. The plating medium consisted of B27/Neurobasal (Life Technologies, Gaithersburg, Md.) supplemented with 0.5 mM glutamine, 100 U/ml penicillin and 100 ug/ml streptomycin.
Lactate dehydrogenate (LDH) cytotoxicity assay. LDH released into the bathing medium 12, 24 and 48 h after NMDA administration was measured using the Cytotox 96 non- radioactive cytotoxicity assay kit (PROMEGA®, WI) (see FIG. 5).

[4] = tested on: WiDr cells; assay: Irradiation (30 Gy) induced apoptosis of WiDr cells; type: cell-based, human; details: 1 μM added 30 minutes before 30 Gy, analyzed 48 hours later
Experimental: JNK is also activated by ionizing radiation. To determine whether inventive TAT-IB(s) peptides would provide protection against radiation-induced JNK damage, “WiDr” cells were irradiated (30 Gy) in presence or absence of D-TAT, inventive L-TAT-IB1(s) or inventive D-TAT-IB1(s) peptides (1 μM added 30 minutes before irradiation). Control cells (CTRL) were not irradiated. Cells were analyzed 48 hours later by means of PI and Hoechst 3342 staining, as described above. N=3, SEM are indicated.

[5] = tested on: male ICR-CD1 mice; assay: Neuroprotection after iv administration against focal cerebral ischaemia, transient MCAO model; type: in vivo
Experimental: Transient ischemia in adult mice. Using male ICR-CD1 mice (6 weeks old; 18-37 g; Harlan), we provoked ischemia by introducing a filament from the common carotid artery into the internal carotid and advancing it into the arterial circle, thereby occluding the middle cerebral artery. We measured regional cerebral blood flow by laser Doppler flowmetry, with a probe fixed on the skull throughout the ischemia until 10 min after reperfusion. Rectal temperature was measured and maintained at 37° C. The mice were killed 48 h after reperfusion. Serial cryostat sections 20 μm thick were traced using a computer-microscope system equipped with the Neurolucida program (MicroBrightField) and the volumes of the ischemic area and of the whole brain were calculated (blinded) with the Neuroexplorer program. XG-102 0.3=0.3 mg/kg, XG-102 1=1 mg/kg, XG-102 5=5 mg/kg
The infarct volume sizes (mm^3) after bolus iv administration of placebo and XG-102 0.3, […] 6 hours after reperfusion (30 minutes clamp) in an adult mice model were as follows.

For `CC(C)C[C@@H](NC(=O)[C@@H](Cc1ccccc1)NC(=O)[C@H]1CCCN1C(=O)[C@@H](CCC(N)=O)NC(=O)[C@H](NC(=O)[C@H]1CCCN1C(=O)[C@@H](CCCNC(=N)N)NC(=O)[C@@H](CO)NC(=O)[C@@H](CCC(N)=O)NC(=O)[C@H](N)CC(=O)O)C(C)C)C(=O)N[C@H](CC(N)=O)C(=O)N[C@H](CC(C)C)C(=O)N[C@@H](C(=O)N[C@@H](C(=O)N1CCC[C@@H]1C(=O)N[C@H](CCCNC(=N)N)C(=O)N[C@H](CCCCN)C(=O)N1CCC[C@@H]1C(=O)N[C@H](CCCNC(=N)N)C(=O)N1CCC[C@@H]1C(=O)N1CCC[C@@H]1C(=O)N[C@H](CCCNC(=N)N)C(=O)N[C@H](CCCNC(=N)N)C(=O)N[C@H](CCCNC(=N)N)C(=O)N[C@H](CCC(N)=O)C(=O)N[C@H](CCCNC(=N)N)C(=O)N[C@H](CCCNC(=N)N)C(=O)N[C@H](CCCCN)C(=O)N[C@H](CCCCN)C(=O)N[C@H](CCCNC(=N)N)C(=O)NCC(=O)O)[C@H](C)O)[C@H](C)O` [D-TAT-IB1(s)] (H-[dD][dQ][dS][dR][dP][dV][dQ][dP][dF][dL][dN][dL][dT][dT][dP][dR][dK][dP][dR][dP][dP][dR][dR][dR][dQ][dR][dR][dK][dK][dR]G-OH), the “long term (15 day) protection against IL-1β induced cell death” value [1] was “able to confer long term (15 day) protection”, the “protection against permanent hearing loss (PTS, 15 days)” value ([2]; 100 μM in hyaluronic acid gel on round window membrane, 30 minutes before, 30 minutes or 4 hours after noise trauma) was “protects substantially against permanent hearing loss; also recorded: protected against permanent hearing loss even if applied after exposure to excessive noise” and the “PTS in treated ears versus untreated control ears” value ([2]; administration 30 minutes and 4 hours post trauma, 8 kHz) was “significantly lower”. For the same molecule, the “degenerative changes due to NMDA exposure (LDH release above controls)” value [3] was “degenerative changes due to NMDA exposure were completely inhibited”, the “prevention of irradiation induced apoptosis” value [4] was “able to prevent irradiation induced apoptosis” and the “infarct volume sizes, moyenne” value ([5]; 0.3 mg/kg bolus iv 6 hours after reperfusion (30 minutes clamp), n = 5) was 16 mm^3. The “infarct volume sizes, moyenne” value ([5]; 1 mg/kg bolus iv 6 hours after reperfusion (30 minutes clamp), n = 1) was 16 mm^3, the “infarct volume sizes, moyenne” value ([5]; XG102 3, bolus iv 6 hours after reperfusion (30 minutes clamp), n = 5) was 15 mm^3 and the neuroprotection ([5]; i.v. administration, mice killed 48 h after reperfusion) was “provides efficient neuroprotection”.
